According to patent US20090028795A1, “NOD1 as an Anti-Tumor Agent” (priority 2005, published 2009):
Non-standard residues stand in square brackets, D forms with d. No end group written: not given here. DAP = diaminopimelic acid

Legend:
Assay type in all cases: cell-based, human
MCF-7 Nod2 cells = experiment: Apoptosis (PI, flow cytometry) in MCF-7 cells over-expressing Nod2; conditions: 20 ug/ml plus CHX, 48 h
Method: In FIG. 5A, MCF-7 Blasto, MCF-7 Nod1 and MCF-7 Nod2 were treated with the NOD1 ligand γTriDAP or the Nod2 ligand muramyl dipeptide (MDP)(20 ug/ml each) in the presence or absence of CHX for 48 h. Cells were then incubated with PI and apoptotic cell death was measured by flow cytometry. […] In FIG. 5B, expression of NOD1 and NOD2 was confirmed by Western blot analysis using anti-Myc antibodies for detection of the recombinant proteins. […] MCF-7 Blasto, MCF-7 Nod1 and MCF-7 Nod2 cells were stimulated with γTriDAP or MDP in the presence or absence of CHX (0.5 ug/ml) for 24 h. Cell supernatants were then harvested and assayed for IL-8 secretion.
Cell viability assays. Propidium iodide exclusion assay: Cells were stimulated as indicated for 2 days. […] The extent of cell death was analyzed with a FACSCalibur flow cytometer (Becton Dickinson, Mountain View, Calif.). […] Cells were fixed in 4% paraformaldehyde and examined by fluorescence microscopy.
Experiments were also performed to ascertain whether activation of Nod2 by its specific activator, muramyl dipeptide (MDP), would initiate apoptosis in parental MCF-7 cells or in MCF-7 cells over-expressing Nod2 (MCF-7 Nod2). Thus, γTriDAP or MDP were added to each of these lines and apoptosis (FIG. 5A) and IL-8 production (FIG. 5C) were measured. […]

MCF-7 cells [1] = experiment: Propidium iodide exclusion cell death assay, wild-type (parental/Blasto) MCF-7 cells; conditions: for cell death / apoptosis: wild type cells, agent alone
Method: (§1) Cell viability assays. Propidium iodide exclusion assay: Cells were stimulated as indicated for 2 days. Subsequently, cells were harvested, washed twice in FACS buffer (PBS containing 1% FCS and 0.1% NaN3) and resuspended in propidium iodide (PI)-containing FACS buffer (4 ug/ml). The extent of cell death was analyzed with a FACSCalibur flow cytometer (Becton Dickinson, Mountain View, Calif.). DAPI staining: MCF-7 cells were plated in chamber slides, and stimulated for 2 days. Cells were washed with PBS and apoptotic nuclei were stained with 1 μg/ml DAPI (Sigma Chemical Co., St. Louis, Mo.). Cells were fixed in 4% paraformaldehyde and examined by fluorescence microscopy.
(§2) To further investigate the role of Nod1 in apoptosis, a variety of cell types were incubated with the Nod1 ligand, […] (γTriDAP), which specifically activates Nod1. The cell types tested included the parental MCF-7 cell line, the Nod1-deficient MCF-7C20 clone, and a cell line engineered to contain an additional human Nod1 allele (MCF-7Nod1) so that Nod1 was over-expressed. To determine whether the resistance of C20 cells to γTriDAP-induced apoptosis resulted from the absence of Nod1, human Nod1 was stably expressed in MCF-7 C20 cells to produce Nod1-sufficient C20 cells (C20/Nod1). As another control, the parental MCF-7 cell line was transfected with an empty retroviral vector to generate MCF-7 Blasto cells. Cells were treated with γTriDAP in the presence or absence of cycloheximide (CHX) and cell death was then determined by propidium iodide staining and flow cytometry.

MCF-7 Nod1 cells = experiment: Propidium iodide exclusion cell death assay, MCF-7 cells over-expressing Nod1; conditions: MCF-7Nod1 cells, cycloheximide and γTriDAP, 48 h treatment
Method: as §1, §2

CaCo2 = experiment: IL-8 production, CaCo2 cells stably expressing Nod1; conditions: CaCo2, Nod1 stably expressed; treatment as labelled
HT29 = experiment: IL-8 production, HT29 cells stably expressing Nod1; conditions: HT29, Nod1 stably expressed; treatment as labelled
293 = experiment: Apoptosis (PI staining), 293 cells stably expressing Nod1; conditions: 293, Nod1 stably expressed; treatment as labelled
Method: as §1
To determine if Nod1-dependent apoptosis occurs in other human cell lines, a series of epithelial cell lines were examined where Nod1 was stably expressed to enhance sensitivity to activation of the Nod1 pathway. Cells were treated with TNFα (T) and γTriDAP (γ) in the presence or absence of CHX (C) and monitored for viability by PI staining as a measure of apoptosis (Table 1).

MCF-7 cells [2] = experiment: Apoptosis in the presence of TNFα (FIG. 8C); conditions: with TNFα
Method: FIG. 8A-D illustrate that a synergistic relationship exists between NOD1 and TNFα. FIG. 8A graphically illustrates that the percentage of apoptotic cells increases in dose-specific manner as the concentration of NOD1 increases from 0.0 to 100 μg/ml and the concentration of TNFα increases from 0.5 ng/ml to 1 ng/ml. FIG. 8B graphically illustrates that the percentage of apoptotic cells increases in dose-specific manner as the concentration of cycloheximide increases from 0.0 to 3 μg/ml and the concentration of TNFα increases from 0.5 ng/ml to 1 ng/ml. […] FIG. 8D illustrates NOD1 expression at various time points after exposure of MCF-7 cells to TNFα.

[3] = tested on: poly(ADP-ribose)polymerase (PARP) and capases 6, 7, 8 and 9; experiment: Western blot of PARP and caspase cleavage in MCF-7 cells; conditions: CHX 0.5 ug/ml, 24 h
Method: Cleavage of PARP and various caspases was detected by Western blot analysis of cell MCF-7 Blasto, MCF-7 C20 and MCF-7 Nod1 after stimulation with γTriDAP, αTriDAP or medium (control) in the presence or absence of CHX (0.5 ug/ml) for 24 h. Cells were harvested, subjected to western blotting and PARP, caspases, p20, p41/43 and p35 were detected with antibodies reactive thereof.
Western blot analysis and immunoprecipitation. Cells were washed extensively and lysed using lysis buffer containing 50 mM Hepes, 100 mM NaCl, 2 mM EDTA, 10% glycerol, 1% Nonidet P-40, 14 μM pepstatin A, 100 uM leupeptin, 3 mM benzamidine, 1 mM PMSF, 1 mM sodium pyrophosphate, 10 mM sodium orthovanadate, 100 U/ml aprotinin, and 100 mM sodium fluoride. After incubation for 30 min on ice, cell lysates were centrifuged (14000 rpm, 10 min, 4° C.) and the supernatants were recovered. For immunoprecipitation, cell lysates were mixed with 5 μg of antibody for 3 hour at 4° C. under constant agitation. Immune complexes were allowed to bind to 20 μl protein A-Sepharose beads overnight, beads were washed three times with lysis buffer. Immunoprecipitates were separated on SDS-PAGE and transferred to PVDF membranes.

With “D-Ala-L-Glu-Diaminopimelic acid ([dA]-Glu-[DAP]; also: Glu joined to DAP through its gamma carboxyl (γTriDAP))” the apoptosis (MCF-7 Nod2 cells) was “produced cell death”, the “cell death / apoptosis” value (MCF-7 cells [1]) was “No cell death” and the “cell death / apoptosis” value (MCF-7 cells [1]; listed as 7-TriDAP) was “did not induce apoptosis”. The cell death (MCF-7 cells [1]; wild-type MCF-7, γTriDAP 50 ug/ml in the presence of cycloheximide 3 ug/ml, 48 h) was “about 25%”, the cell death (MCF-7 Nod1 cells) was about 60% and the “IL−8 Production” value (CaCo2) was “poorly responsive”. For the same substance, the “IL−8 Production” value (HT29) was “poorly responsive”, the apoptosis 293 was “resistant” and the “apoptosis in the presence of TNFα” value (MCF-7 cells [2]) was “increases apoptosis”. The “proteolytic cleavage of PARP and capases 6, 7, 8 and 9” value [3] was “resulted in proteolytic cleavage”.
